Columns and labels:
Type in all cases: biochemical
Conditions in all cases: method of U.S. Ser. No. 11/473,347 or similar
Kdr = Kdr (Homo sapiens, UniProt P35968); test: Kdr kinase activity assay
Description: (§1) Assays for the activity of kinases, including, but not limited to, Fms, Kit, B-Raf, B-Raf V600E, B-Raf V600E/T5291 and c-Raf-1 are known in the art, for example as described in US Patent Publication Number US20070032519 and U.S. patent application Ser. No. 11/473,347 (see also, PCT publication WO2007002433), the disclosures of which are hereby incorporated by reference with respect to such assays.
(§2) Compounds P-0001 was screened by at least one of the methods described in U.S. patent application Ser. No. 11/473,347, or by similar methods.

Kit = Kit (Homo sapiens, UniProt P10721); test: Kit kinase activity assay
Description: as §1, §2

Fms = Fms (Homo sapiens, UniProt P07333); test: Fms kinase activity assay
Description: as §1, §2

Btk = Btk (Homo sapiens, UniProt Q06187); test: Btk kinase activity assay
Description: as §1, §2

Measured: IC50

Fms, sequence (P07333 20-972): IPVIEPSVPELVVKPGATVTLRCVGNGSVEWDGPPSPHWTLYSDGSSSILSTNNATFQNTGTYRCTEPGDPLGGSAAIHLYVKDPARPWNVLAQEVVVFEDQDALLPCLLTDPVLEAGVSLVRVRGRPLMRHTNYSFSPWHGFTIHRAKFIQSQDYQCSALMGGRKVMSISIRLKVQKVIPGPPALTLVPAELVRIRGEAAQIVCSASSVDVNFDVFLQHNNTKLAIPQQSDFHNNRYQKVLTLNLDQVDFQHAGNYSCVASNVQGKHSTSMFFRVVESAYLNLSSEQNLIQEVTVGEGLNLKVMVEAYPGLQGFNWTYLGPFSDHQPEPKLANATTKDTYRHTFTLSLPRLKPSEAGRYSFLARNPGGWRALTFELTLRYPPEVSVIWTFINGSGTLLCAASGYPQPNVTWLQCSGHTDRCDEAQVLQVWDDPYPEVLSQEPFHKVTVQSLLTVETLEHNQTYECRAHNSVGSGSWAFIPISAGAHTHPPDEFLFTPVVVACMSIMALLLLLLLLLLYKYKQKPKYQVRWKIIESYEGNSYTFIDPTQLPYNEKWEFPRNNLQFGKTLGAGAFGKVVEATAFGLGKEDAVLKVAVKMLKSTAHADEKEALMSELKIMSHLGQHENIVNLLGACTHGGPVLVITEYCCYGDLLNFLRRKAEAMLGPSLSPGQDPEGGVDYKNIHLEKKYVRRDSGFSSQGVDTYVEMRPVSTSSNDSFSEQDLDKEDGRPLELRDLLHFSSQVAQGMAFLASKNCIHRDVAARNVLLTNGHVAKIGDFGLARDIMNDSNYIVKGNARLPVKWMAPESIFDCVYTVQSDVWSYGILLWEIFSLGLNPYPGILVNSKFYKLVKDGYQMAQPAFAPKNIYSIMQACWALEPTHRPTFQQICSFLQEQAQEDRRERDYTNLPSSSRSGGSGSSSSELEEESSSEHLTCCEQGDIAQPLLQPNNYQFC
Kit, sequence (P10721 26-976): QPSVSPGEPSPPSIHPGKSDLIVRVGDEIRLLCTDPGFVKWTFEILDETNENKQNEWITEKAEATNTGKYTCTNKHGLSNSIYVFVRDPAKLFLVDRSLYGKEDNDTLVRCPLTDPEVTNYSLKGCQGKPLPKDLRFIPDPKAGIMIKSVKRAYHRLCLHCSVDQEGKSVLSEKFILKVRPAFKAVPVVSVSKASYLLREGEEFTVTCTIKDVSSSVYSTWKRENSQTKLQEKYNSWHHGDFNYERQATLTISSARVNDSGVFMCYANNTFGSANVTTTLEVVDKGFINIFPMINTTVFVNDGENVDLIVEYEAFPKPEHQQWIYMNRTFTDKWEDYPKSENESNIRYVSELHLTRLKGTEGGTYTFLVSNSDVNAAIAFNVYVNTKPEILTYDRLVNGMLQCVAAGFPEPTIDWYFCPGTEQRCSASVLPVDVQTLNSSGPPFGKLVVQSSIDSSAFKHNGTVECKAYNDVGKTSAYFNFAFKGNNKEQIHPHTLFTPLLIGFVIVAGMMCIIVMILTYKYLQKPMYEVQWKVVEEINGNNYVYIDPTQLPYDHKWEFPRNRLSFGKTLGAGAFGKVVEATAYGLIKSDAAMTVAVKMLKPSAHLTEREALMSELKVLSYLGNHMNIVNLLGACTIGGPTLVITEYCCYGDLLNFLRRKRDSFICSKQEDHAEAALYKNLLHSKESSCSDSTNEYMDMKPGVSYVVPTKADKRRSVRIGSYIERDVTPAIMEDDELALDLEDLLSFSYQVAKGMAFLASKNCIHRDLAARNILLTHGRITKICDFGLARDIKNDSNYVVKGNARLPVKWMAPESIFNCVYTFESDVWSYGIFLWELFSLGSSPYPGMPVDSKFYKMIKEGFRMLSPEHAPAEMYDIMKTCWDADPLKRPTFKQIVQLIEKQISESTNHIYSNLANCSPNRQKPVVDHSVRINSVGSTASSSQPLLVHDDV
Btk, sequence (Q06187 whole entry): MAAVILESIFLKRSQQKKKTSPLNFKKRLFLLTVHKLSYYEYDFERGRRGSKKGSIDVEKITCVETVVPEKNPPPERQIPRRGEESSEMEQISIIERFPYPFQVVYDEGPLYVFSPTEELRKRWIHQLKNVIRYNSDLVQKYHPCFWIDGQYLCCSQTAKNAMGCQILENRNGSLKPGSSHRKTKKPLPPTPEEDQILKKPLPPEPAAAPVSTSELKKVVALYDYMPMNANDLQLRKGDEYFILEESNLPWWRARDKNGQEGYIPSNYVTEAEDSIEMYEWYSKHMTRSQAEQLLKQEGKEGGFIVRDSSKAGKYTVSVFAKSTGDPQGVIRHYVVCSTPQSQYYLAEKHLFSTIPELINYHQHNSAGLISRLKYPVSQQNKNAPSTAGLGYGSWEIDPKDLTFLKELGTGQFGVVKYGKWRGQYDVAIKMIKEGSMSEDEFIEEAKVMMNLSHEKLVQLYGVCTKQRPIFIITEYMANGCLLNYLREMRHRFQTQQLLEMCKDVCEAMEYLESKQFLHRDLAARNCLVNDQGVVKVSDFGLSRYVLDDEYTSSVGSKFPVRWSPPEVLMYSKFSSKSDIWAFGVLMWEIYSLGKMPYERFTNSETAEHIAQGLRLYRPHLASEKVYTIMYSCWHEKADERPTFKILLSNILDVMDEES
Kdr, sequence (P35968 20-1356): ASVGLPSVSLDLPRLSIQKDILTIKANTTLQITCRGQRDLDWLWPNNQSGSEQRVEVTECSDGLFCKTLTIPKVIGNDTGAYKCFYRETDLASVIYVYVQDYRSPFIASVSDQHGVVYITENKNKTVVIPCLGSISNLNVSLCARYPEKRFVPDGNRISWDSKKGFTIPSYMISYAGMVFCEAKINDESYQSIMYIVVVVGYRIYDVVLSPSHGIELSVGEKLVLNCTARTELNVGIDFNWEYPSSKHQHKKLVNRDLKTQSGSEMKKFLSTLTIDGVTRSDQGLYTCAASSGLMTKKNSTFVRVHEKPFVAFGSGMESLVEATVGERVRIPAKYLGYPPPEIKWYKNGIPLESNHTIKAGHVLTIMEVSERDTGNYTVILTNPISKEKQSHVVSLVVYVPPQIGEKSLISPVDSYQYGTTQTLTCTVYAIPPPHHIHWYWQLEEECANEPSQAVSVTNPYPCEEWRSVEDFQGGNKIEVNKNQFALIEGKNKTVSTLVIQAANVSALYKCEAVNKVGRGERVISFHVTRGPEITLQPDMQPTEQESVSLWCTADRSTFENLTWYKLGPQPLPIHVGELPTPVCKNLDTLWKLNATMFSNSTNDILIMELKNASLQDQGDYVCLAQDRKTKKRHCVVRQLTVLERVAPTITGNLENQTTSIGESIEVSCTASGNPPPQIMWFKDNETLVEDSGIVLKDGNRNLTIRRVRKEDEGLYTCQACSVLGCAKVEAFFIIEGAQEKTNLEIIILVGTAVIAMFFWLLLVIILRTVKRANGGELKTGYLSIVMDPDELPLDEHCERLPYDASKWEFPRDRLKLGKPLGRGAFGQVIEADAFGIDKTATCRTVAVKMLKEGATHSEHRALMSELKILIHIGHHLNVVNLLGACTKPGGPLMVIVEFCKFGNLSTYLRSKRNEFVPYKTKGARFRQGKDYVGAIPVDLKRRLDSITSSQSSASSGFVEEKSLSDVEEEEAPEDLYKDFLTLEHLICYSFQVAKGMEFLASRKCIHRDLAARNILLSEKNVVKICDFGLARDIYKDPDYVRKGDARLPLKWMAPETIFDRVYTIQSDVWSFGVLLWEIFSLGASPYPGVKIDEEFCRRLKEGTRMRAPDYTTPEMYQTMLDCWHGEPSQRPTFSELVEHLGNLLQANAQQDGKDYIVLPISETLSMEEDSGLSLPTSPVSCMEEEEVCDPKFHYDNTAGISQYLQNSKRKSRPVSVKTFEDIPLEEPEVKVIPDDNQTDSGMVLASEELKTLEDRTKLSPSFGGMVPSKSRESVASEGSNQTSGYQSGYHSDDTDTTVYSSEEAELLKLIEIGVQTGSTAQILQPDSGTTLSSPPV

COc1ccc(CNc2ccc(Cc3c[nH]c4nccnc34)cn2)cn1 [Compound P-0001, (6-methoxy-pyridin-3-ylmethyl)-[5-(5H-pyrrolo[2,3-b]pyrazin-7-ylmethyl)-pyridin-2-yl]-amine]
< 10 µM: all assays above
